The series can be described thus: Human HepG2 cell viability assay in 384 well format. It is filed as toxicity, cell-based. More on the design: dose 125 nL, time 70.5 hour; cytotoxicity at 70.5 h: concentration not given beside the values. The conditions noted are these: HepG2 cells, read-out: Inhibition.

Regarding `CN1CCCN(c2cnn(Cc3ccc(C(C)(C)C)cc3)c(=O)c2)CC1`, the cytotoxicity at 70.5 h was -8.93%.
Turning to `Cc1cc(NCc2cc3n(n2)CCCN(C(=O)C2CCC2)C3)nc(N)n1`, the cytotoxicity at 70.5 h is -1.07%.
Regarding `CC(C)N(C)S(=O)(=O)c1ccc2c(c1)CCN(C(=O)c1ccccn1)C2`, the cytotoxicity at 70.5 h is 22.8%.
`CCOc1ccccc1N1CCN(c2nnc(C)o2)CC1`: the cytotoxicity at 70.5 h is -13.5%.
Take `CS(=O)(=O)N1CCC(Oc2ccc(C(=O)NCCC(N)=O)cc2Cl)CC1`: the cytotoxicity at 70.5 h came to 6.15%.
Regarding `O=C1OCCN1CCNc1ncc2c(n1)CCN2c1ccccc1`, the cytotoxicity at 70.5 h was -6.11%.
On to `CCn1c(N)nc2cc(C(=O)NCCc3ccccc3F)cnc21`, for which the cytotoxicity at 70.5 h is -28.6%.
Then `COc1ccccc1OC1CN(C(=O)c2ccc(C(C)=O)s2)C1`, with -10.9%.
Regarding `CC(Cn1ccnc1)NCc1n[nH]c2c1CCC2` (stereo unspecified), the cytotoxicity at 70.5 h was -20.8%.
`O=C(NCC(F)(F)F)c1coc(COc2cccc(F)c2)n1`: the cytotoxicity at 70.5 h was determined as 14.5%.
With `CC(C)c1ccc(N2CCc3onc(-c4ccc(F)c(F)c4)c3C2)nn1`, the cytotoxicity at 70.5 h was -6.74%.
Then `CN(C)C(=O)N1CCC(C(=O)N2CCOC(CC3CCCCC3)C2)CC1` (stereo unspecified), with -0.504%; and `CC(=O)NCCC1CCCCN1S(=O)(=O)c1cccc(Cl)c1` (stereo unspecified), with 36.4%.
Regarding `O=C1CCC2(CCN(CC[C@@H](O)c3ccccc3)CC2)CN1CC1CC1`, the cytotoxicity at 70.5 h was -5.97%.
Consider `Cc1nc[nH]c1CNC1CC(=O)N(CCc2cccc(Cl)c2)C1` (stereo unspecified), for which the cytotoxicity at 70.5 h is -2.03%.
On to `Cc1cc(C(=O)N2C[C@@H]3[C@@H](CN(C)CCc4ccccn4)[C@@H]3C2)c(C)o1`, for which the cytotoxicity at 70.5 h was 25.1%.
For the compound `CCOC(=O)N1CCC(NCC2CCN(c3cnn(C)c(=O)c3)C2)CC1` (stereo unspecified), the cytotoxicity at 70.5 h is -6.78%.
Then `CN(C)C(=O)c1ccc2c(c1)nc(N1CC[C@H](O)C1)n2C`, with 19.5%.
Consider `Cc1nc(C)n(CCCNc2ncnc3onc(C)c23)n1`, for which the cytotoxicity at 70.5 h was -3.47%.
In the case of `CCn1cnc(NC(=O)N2CCC(c3ccc(Cl)cc3)C2)n1` (stereo unspecified), the cytotoxicity at 70.5 h was 11.3%.
On to `Cc1cc(C(=O)N2C[C@@H](CN3CCOCC3)C[C@H](CO)C2)nc(C)n1`, for which the cytotoxicity at 70.5 h is -5.29%.
`Cc1cc(N2CCC(c3ncc[nH]3)CC2)c2ccccc2n1`: the cytotoxicity at 70.5 h is -7.19%.
With `CCc1cc(NCCNC(C)=O)nc(N2CCOCC2)n1`, the cytotoxicity at 70.5 h was -13.2%.
As to `COc1ccc(C(=O)NCc2cc(N3CCOCC3)ncn2)o1`, the cytotoxicity at 70.5 h turned out to be 17.5%.
Then `CC(C)CN1C(=O)CC[C@H]2CN(C(=O)Cn3ccccc3=O)CC[C@H]21`, with -0.419%; and `O=c1cc(N2CCCCC2)cnn1Cc1noc(C2CCCO2)n1` (stereo unspecified), with -10.8%; and `O=C(c1ccnc(-n2cnnc2)c1)N1CCCC2(CCNC2)C1` (stereo unspecified), with -9.32%.
In the case of `CCn1nc(C)cc1S(=O)(=O)N1CCC2(CCCN(C(C)C)C2=O)C1` (stereo unspecified), the cytotoxicity at 70.5 h was -1.6%.
Regarding `Cc1[nH]c2c(C)ccc(C)c2c1CC(=O)NCc1csc(N(C)C)n1`, the cytotoxicity at 70.5 h came to 17.8%.
On to `COc1cccc2c1OCC(C(=O)NCc1nc3c(s1)CCCC3)C2` (stereo unspecified), for which the cytotoxicity at 70.5 h was 21.6%.
Turning to `Cc1cc(OCC(O)c2nc3c([nH]2)CC(C)(C)CNC3=O)ccc1Cl` (stereo unspecified), the cytotoxicity at 70.5 h was -12.4%.
With `O=c1cc(C2CCNCC2)nc(CCc2ccccn2)[nH]1`, the cytotoxicity at 70.5 h is -2.52%.
As to `Cc1csc2c(N3CCC(NCCCc4cnn(C)c4)CC3)ncnc12`, the cytotoxicity at 70.5 h is 2.87%.
Take `Cn1ccnc1-c1cnn(CC(=O)Nc2ccnn2C)c1`: the cytotoxicity at 70.5 h is -3%.
Take `O=C(Nc1cnc2n1CCCC2)c1cccc(-n2cnnc2)c1`: the cytotoxicity at 70.5 h was -16.8%.
On to `Cc1cc(N2CCN(C(=O)c3cnn(C(C)C)c3)CC2)nc(N)n1`, for which the cytotoxicity at 70.5 h was -4.23%.
Take `Cc1nn(C)c(C)c1-c1cc(-c2cnn(C)c2C2CC2)c(C#N)c(N)n1`: the cytotoxicity at 70.5 h is -12.7%.
For the compound `CC(C)c1nc(CN(C)C(=O)CNS(=O)(=O)c2cccs2)no1`, the cytotoxicity at 70.5 h stood at 46.6%.
Then `NC(=O)CN1CCC(C(=O)NCC(O)c2cccc(F)c2)CC1` (stereo unspecified), with -10.5%; and `Fc1cccc(C2CCCCN2Cc2nc(-c3cnccn3)no2)c1` (stereo unspecified), with -1.63%.
For the compound `CSCCCN1C[C@H](NC(=O)c2cnn(C)c2)[C@@H](C2CC2)C1`, the cytotoxicity at 70.5 h is -7.31%.
`CCS(=O)(=O)N1CCCC(c2nccn2Cc2ccccn2)C1` (stereo unspecified): the cytotoxicity at 70.5 h is -2.1%.
Consider `CCS(=O)(=O)c1ncc(CN2CCCC2)n1CCc1ccccc1`, for which the cytotoxicity at 70.5 h was -12.5%.
As to `O=C(NCc1ccccc1-n1cccn1)C1CC2(CCNCC2)CN1` (stereo unspecified), the cytotoxicity at 70.5 h is -1.74%.
For the compound `CC(C)c1noc(C2CCCN2C(=O)CN2CCc3ccccc32)n1` (stereo unspecified), the cytotoxicity at 70.5 h came out at 23.7%.
For `NC(=O)c1cc2c(nc1CCOCc1ccccc1)CCC2`, the cytotoxicity at 70.5 h is -8.58%.
As for `CCN1CCN(C(=O)CCC2CCN(C(C)CCC(=O)OC)CC2)CC1` (stereo unspecified), the cytotoxicity at 70.5 h is 8.92%.
Take `CSc1ncc(CNCC2(N3CCCCC3)Cc3ccccc3C2)cn1`: the cytotoxicity at 70.5 h is -1.26%.
In the case of `O=C(NCc1cn2c(n1)SCC2)c1cn(CCN2CCCCC2)nn1`, the cytotoxicity at 70.5 h came out at 17.2%.
For `CNc1ccnc(N2CCCC(C(=O)c3ccccn3)C2)n1` (stereo unspecified), the cytotoxicity at 70.5 h amounted to 24.1%.
With `Oc1ccc(CCC2CCCCN2Cc2noc(C3CC3)n2)cc1` (stereo unspecified), the cytotoxicity at 70.5 h worked out at 15.5%.
Consider `O=c1cc(N2CCNCC2)cnn1Cc1noc(C2CCCC2)n1`, for which the cytotoxicity at 70.5 h was -23.8%.
Then `COc1cccc(OCCNS(C)(=O)=O)c1`, with 1.43%.
The value for `CCC(=O)N1CCN(c2cc(-n3cnc(C)c3C)nc(C)n2)CC1` was 20.4%.
Take `CN(Cc1nccn1C)CC1CCOc2ccccc2C1` (stereo unspecified): the cytotoxicity at 70.5 h amounted to 22.3%.
With `CC(=O)N1CCN(c2cc(-n3cnc(C)c3C)nc(C)n2)CC1`, the cytotoxicity at 70.5 h was -6.25%.
The value for `COCc1nc2ncc3c(=O)n(-c4cccc(OC)c4)ccc3n2n1` was 27.8%; that for `Cc1ccc(C(=O)Nc2ccc(OC3CCN(C)CC3)cc2)c(C)c1` was -5.87%; that for `CCC(=O)Nc1cccc(OCC(=O)N(C)Cc2nccn2CC)c1` was -2.37%.
`Cc1ccc2nc(N3CCN(CC(=O)NC(C)C)CC3)cc(C)c2c1`: the cytotoxicity at 70.5 h is -1.6%.
With `Cc1ccc(N2CCN(C(=O)COc3ncccn3)CC2)nn1`, the cytotoxicity at 70.5 h is -7.37%.
In the case of `CC(C)c1ccc(OCC(=O)N(C)C)cc1`, the cytotoxicity at 70.5 h was -9.35%.
Regarding `Cc1ccc(C)c(C(=O)Nc2ccc(OC3CCN(C)CC3)cc2)c1`, the cytotoxicity at 70.5 h was -6.52%.
Then `O=C(NCCCc1ccc(F)cc1)c1ccc(N2CCOCC2)cc1`, with 2.69%; and `CCc1noc(-c2cccc(NC(=O)C(C)(C)C)c2)n1`, with -11.2%; and `Cc1cc(C(=O)NC(C)c2nnn[nH]2)c2cccc(C)c2n1` (stereo unspecified), with -0.0967%.
Regarding `FC(F)(F)c1nc(NC2CCCCC2)c2ccccc2n1`, the cytotoxicity at 70.5 h was -10.5%.
The value for `Cc1cc(C)nc(N2C[C@H]3OC(=O)N(CCc4cccc(Cl)c4)[C@H]3C2)n1` was -0.529%; that for `COCc1nc2ncc3c(=O)n(-c4ccc(OC)cc4)ccc3n2n1` was -5.86%.
Regarding `Cc1ccc(N2CC[C@]3(O)CCN(CCN4CCCC4=O)C[C@@H]3C2)nn1`, the cytotoxicity at 70.5 h was determined as 0.21%.
Turning to `C[C@@H]1CN(CC(C)(C)N2CCCCC2)C[C@@]1(O)C1CC1`, the cytotoxicity at 70.5 h was -1.88%.
`Cc1ncc(C(=O)NCCOc2ccccc2F)c(C)n1`: the cytotoxicity at 70.5 h amounted to 7.2%.
As to `COc1ccc(C(C(=O)O)N2CCN(C3CCCCC3)CC2)cc1OC` (stereo unspecified), the cytotoxicity at 70.5 h amounted to 13.6%.
As to `Cc1ccc(CN2CCN(Cc3ccncc3)[C@@H]3CS(=O)(=O)C[C@@H]32)cc1`, the cytotoxicity at 70.5 h is -7.92%.
Consider `CC(C)[C@H]1CN(CCS(C)(=O)=O)C[C@@H]1NC(=O)c1ccc(=O)[nH]c1`, for which the cytotoxicity at 70.5 h is -3.99%.
For `N#Cc1ccc(C(=O)N2CCC(c3ncc[nH]3)CC2)cn1`, the cytotoxicity at 70.5 h is -7.49%.
Take `CNc1ncc(CN(C)c2nc(C3CCCC3)nc3c2cnn3C)cn1`: the cytotoxicity at 70.5 h came to 6.56%.
The value for `Cn1cccc1C(=O)N1CCC2(CCCN(CC3CC3)C2=O)C1` (stereo unspecified) was -4.86%; that for `COc1nccnc1N1CCN(Cc2ccc3c(c2)OCO3)C(=O)C1` was 20.7%; that for `COc1ccc(CC(=O)N2CC[C@H](CO)[C@H](O)C2)c(OC)c1` was -7.77%.
With `Cc1cc(C(=O)N2CCC(n3cc(CO)nn3)CC2)ccc1F`, the cytotoxicity at 70.5 h was -5.39%.
The value for `CN(C)S(=O)(=O)N1CC[C@]2(O)CCN(Cc3cccc(C#N)c3)C[C@@H]2C1` was 9.63%; that for `CCn1c(C2CCNCC2)nn(CCCc2ccccc2)c1=O` was -5.09%.
Take `O=C(CCC(F)(F)F)N1CCCC(c2ncc[nH]2)C1` (stereo unspecified): the cytotoxicity at 70.5 h is 42.3%.
The value for `O=C1[C@H]2CC[C@H](CN(Cc3nnc(C4CC4)o3)C2)N1Cc1cscn1` was 18.5%.
For `COCCOC1CCN(C(C(=O)O)c2ccc3c(c2)OCO3)CC1` (stereo unspecified), the cytotoxicity at 70.5 h is -6.06%.
In the case of `CC(C)Oc1ccc2c(NC(=O)CN(C)C)nn(CC(F)(F)F)c2c1`, the cytotoxicity at 70.5 h is -19%.
The value for `N#CC1CCN(C(=O)CN2CC(c3ccccc3)CC2=O)CC1` (stereo unspecified) was -4.6%; that for `CN(C)C1CCCN(Cc2cccc(Cn3cccn3)c2)CC1` (stereo unspecified) was -1.58%.
Then `CN(C)S(=O)(=O)N1CCCC(CCC(=O)Nc2ccc(Cl)cc2)C1` (stereo unspecified), with 42.2%; and `O=C(NCc1ccc2c(c1)CCCO2)c1ccccc1C1CCNC1` (stereo unspecified), with -20.6%.
Then `CCc1ccc(CN(C)C(=O)c2cnc3c(c2)nc(N)n3CC)nc1`, with -8.01%.
As for `Cc1cccc2cc(CN3CCC(O)(CN4CCCC4)CC3)c(=O)[nH]c12`, the cytotoxicity at 70.5 h was -0.171%.
Regarding `CC(C)=CCN1CCN(Cc2ncc[nH]2)[C@H]2CS(=O)(=O)C[C@H]21`, the cytotoxicity at 70.5 h is -4.55%.
Consider `COCc1ncc(CN2CC[C@@](O)(COC)C(C)(C)C2)cn1`, for which the cytotoxicity at 70.5 h was -18.6%.
Then `CN(Cc1n[nH]c(=O)n1Cc1cccs1)S(C)(=O)=O`, with -0.816%.

Source of the values: ChEMBL document CHEMBL3507680, “University of Dundee, Gates Library screen for HepG2 cell viability”.
